This is an account of results in ChEMBL document CHEMBL5390264, “Exploring Fatty Acid Mimetics as NR4A Ligands” (J Med Chem, 2023).

pEC50: −log10 of the molar value. Active and inactive are the calls of the source. No cut-off for these calls is given here. Where only a bound is given, the exact number is not on record here.

Experiment [1] concerns the target T1, Vitamin D3 receptor (Homo sapiens) (UniProt P11473).
T1 sequence (whole entry): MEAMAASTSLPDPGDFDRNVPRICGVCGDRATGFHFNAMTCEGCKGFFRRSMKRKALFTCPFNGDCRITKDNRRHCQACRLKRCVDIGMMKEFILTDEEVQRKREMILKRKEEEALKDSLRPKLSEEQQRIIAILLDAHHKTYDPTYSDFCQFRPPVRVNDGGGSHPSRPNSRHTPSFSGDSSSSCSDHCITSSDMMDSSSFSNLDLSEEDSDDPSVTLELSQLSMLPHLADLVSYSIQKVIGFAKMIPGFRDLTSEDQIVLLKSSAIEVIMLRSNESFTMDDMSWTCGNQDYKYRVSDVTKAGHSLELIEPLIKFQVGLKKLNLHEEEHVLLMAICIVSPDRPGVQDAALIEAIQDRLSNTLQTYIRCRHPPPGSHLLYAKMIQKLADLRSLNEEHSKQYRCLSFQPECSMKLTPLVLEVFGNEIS
Kind of experiment: Agonist activity at VDR LBD (unknown origin) transiently transfected in HEK293T cells at 1 uM incubated for 16 hrs by Gal4-hybrid reporter gene based Dual-glo luciferase assay. In kind it is cell-based. (A reporter such as luciferase makes a cellular process visible.)

Experiment [2] is described as follows: Selectivity ratio for agonist activity at PPARalpha LBD (unknown origin) transiently transfected in HEK293T cells to agonist activity at human Nurr1 LBD transiently transfected in HEK293T cells. In kind it is cell-based.
Experiment [3] in a line: Selectivity ratio for agonist activity at PPARalpha LBD (unknown origin) transiently transfected in HEK293T cells to agonist activity at human NOR-1 LBD transiently transfected in HEK293T cells. In kind it is cell-based.
A short description of experiment [4]: Selectivity ratio for agonist activity at RARalpha LBD (unknown origin) transiently transfected in HEK293T cells to agonist activity at human NOR-1 LBD transiently transfected in HEK293T cells. Type of experiment: cell-based.
A short description of experiment [5]: Selectivity ratio for agonist activity at THRalpha LBD (unknown origin) transiently transfected in HEK293T cells to agonist activity at human Nur77 LBD transiently transfected in HEK293T cells. Type of experiment: cell-based.
A short description of experiment [6]: Selectivity ratio for agonist activity at FXR LBD (unknown origin) transiently transfected in HEK293T cells to agonist activity at human Nurr1 LBD transiently transfected in HEK293T cells. Type of experiment: cell-based.
For experiment [7], the target named is T2, Nuclear receptor subfamily 4 group A member 2 (Homo sapiens, UniProt P43354). The settings on record: filed as agonist, dose 100.0 µM.
T2 sequence (P43354 whole entry, the tested form may be a part): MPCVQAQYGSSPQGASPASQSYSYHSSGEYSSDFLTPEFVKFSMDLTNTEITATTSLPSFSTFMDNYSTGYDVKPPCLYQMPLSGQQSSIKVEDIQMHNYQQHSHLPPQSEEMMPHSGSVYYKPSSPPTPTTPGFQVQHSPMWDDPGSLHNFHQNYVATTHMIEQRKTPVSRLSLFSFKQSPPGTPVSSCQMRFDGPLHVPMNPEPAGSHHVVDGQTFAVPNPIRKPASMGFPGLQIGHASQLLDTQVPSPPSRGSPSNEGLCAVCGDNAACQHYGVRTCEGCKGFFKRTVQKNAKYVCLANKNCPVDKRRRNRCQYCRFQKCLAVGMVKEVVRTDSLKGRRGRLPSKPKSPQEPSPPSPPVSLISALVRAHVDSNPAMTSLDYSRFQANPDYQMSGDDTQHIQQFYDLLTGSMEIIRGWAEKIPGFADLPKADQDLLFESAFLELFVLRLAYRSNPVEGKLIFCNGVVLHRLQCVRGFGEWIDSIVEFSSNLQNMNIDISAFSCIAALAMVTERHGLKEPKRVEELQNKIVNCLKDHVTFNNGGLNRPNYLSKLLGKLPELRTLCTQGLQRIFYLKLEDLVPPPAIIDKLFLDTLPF
The nature of experiment [8]: Selectivity ratio for agonist activity at FXR LBD (unknown origin) transiently transfected in HEK293T cells to agonist activity at human Nur77 LBD transiently transfected in HEK293T cells. In kind it is cell-based.
For experiment [9], the target named is T2, Nuclear receptor subfamily 4 group A member 2. In words: Agonist activity at full length human Nurr1 transiently transfected in HEK293T cells co-transfected with pFR-Luc-DR5 incubated for 16 hrs by Gal4-hybrid reporter gene based Dual-glo luciferase assay. In kind it is cell-based.
Experiment [10] can be described thus: Selectivity ratio for agonist activity at PPARalpha LBD (unknown origin) transiently transfected in HEK293T cells to agonist activity at human Nur77 LBD transiently transfected in HEK293T cells. In kind it is cell-based.
A short description of experiment [11]: Selectivity ratio for agonist activity at VDR LBD (unknown origin) transiently transfected in HEK293T cells to agonist activity at human Nur77 LBD transiently transfected in HEK293T cells. In kind it is cell-based.
Experiment [12] has as its target T2, Nuclear receptor subfamily 4 group A member 2. The note with it: filed as agonist, dose 100.0 µM. The source holds these as a separate data set.
Experiment [13] in a line: Selectivity ratio for agonist activity at RXRalpha LBD (unknown origin) transiently transfected in HEK293T cells to agonist activity at human NOR-1 LBD transiently transfected in HEK293T cells. Type of experiment: cell-based.
Experiment [14] can be described thus: Selectivity ratio for agonist activity at THRalpha LBD (unknown origin) transiently transfected in HEK293T cells to agonist activity at human Nurr1 LBD transiently transfected in HEK293T cells. Type of experiment: cell-based.
The target of experiment [15] is T3, Peroxisome proliferator-activated receptor gamma (Homo sapiens) (UniProt P37231).
T3 sequence (whole entry): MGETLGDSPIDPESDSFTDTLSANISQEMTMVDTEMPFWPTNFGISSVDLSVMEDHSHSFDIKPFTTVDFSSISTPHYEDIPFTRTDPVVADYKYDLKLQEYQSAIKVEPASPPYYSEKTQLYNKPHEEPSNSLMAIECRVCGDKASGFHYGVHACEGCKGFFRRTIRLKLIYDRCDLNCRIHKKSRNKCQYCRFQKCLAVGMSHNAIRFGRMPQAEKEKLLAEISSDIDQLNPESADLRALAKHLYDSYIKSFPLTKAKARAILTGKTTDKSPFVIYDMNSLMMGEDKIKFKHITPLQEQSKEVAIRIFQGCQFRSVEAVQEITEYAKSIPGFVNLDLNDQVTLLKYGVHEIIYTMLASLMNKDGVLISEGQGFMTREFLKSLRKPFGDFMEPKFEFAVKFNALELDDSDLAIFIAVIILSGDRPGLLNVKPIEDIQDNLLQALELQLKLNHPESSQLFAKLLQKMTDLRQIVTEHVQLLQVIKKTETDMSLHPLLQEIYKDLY
Kind of experiment: Agonist activity at PPARgamma LBD (unknown origin) transiently transfected in HEK293T cells at 1 uM incubated for 16 hrs by Gal4-hybrid reporter gene based Dual-glo luciferase assay. Type of experiment: cell-based.

Experiment [16] deals with T2, Nuclear receptor subfamily 4 group A member 2. Kind of experiment: Agonist activity at human Nurr1 LBD transiently transfected in HEK293T cells incubated for 16 hrs by Gal4-hybrid reporter gene based Dual-glo luciferase assay. Type of experiment: cell-based. The settings on record: read-out: EC50.
Experiment [17] has as its target T4, Retinoic acid receptor alpha (Homo sapiens) (UniProt P10276).
T4 sequence (whole entry): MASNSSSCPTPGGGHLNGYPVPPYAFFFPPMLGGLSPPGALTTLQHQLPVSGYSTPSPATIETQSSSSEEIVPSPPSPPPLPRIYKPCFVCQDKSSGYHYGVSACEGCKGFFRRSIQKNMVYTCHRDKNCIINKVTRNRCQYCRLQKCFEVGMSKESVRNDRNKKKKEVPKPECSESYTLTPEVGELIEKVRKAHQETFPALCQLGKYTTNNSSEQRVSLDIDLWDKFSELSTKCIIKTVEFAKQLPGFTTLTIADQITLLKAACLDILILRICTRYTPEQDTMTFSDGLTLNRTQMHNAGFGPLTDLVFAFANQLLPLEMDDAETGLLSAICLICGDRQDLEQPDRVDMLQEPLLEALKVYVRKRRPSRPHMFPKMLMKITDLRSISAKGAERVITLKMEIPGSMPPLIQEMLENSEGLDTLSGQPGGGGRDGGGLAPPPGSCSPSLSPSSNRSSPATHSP
In words: Agonist activity at RARalpha LBD (unknown origin) transiently transfected in HEK293T cells at 1 uM incubated for 16 hrs by Gal4-hybrid reporter gene based Dual-glo luciferase assay. In kind it is cell-based.

Experiment [18] is described as follows: Selectivity ratio for agonist activity at RARalpha LBD (unknown origin) transiently transfected in HEK293T cells to agonist activity at human Nurr1 LBD transiently transfected in HEK293T cells. In kind it is cell-based.

Consider `CC(C)(C)c1ccc(COc2cccc(C(=O)O)c2)cc1`, for which the outcome in experiment [1], in experiment [15] and in [17] was inactive. In addition, the Selectivity ratio in [2], in experiment [3], in experiment [4], in experiment [5], in [6] and in experiment [8] was more than 30 in each case. Also, the Selectivity ratio in experiment [10], in [11], in [13], in [14] and in experiment [18] was more than 30 throughout. For the same compound, the -TdeltaS in experiment [7] is -5.2 kcal/mol. In addition, the pEC50 was 7.92 in experiment [9] and 6.92 in experiment [16]. The deltaH in [12] is -4 kcal/mol.

Usually pEC50 stands for the negative decadic logarithm of the EC50, by convention in mol/L.
